# Source: patent US6737383B1, “Herbicidal oxadiazolidines” (priority 1999, dated 2004)
# Experiments:
# pigweed = experiment: Test B pre/postemergence pigweed; format: in vivo, Amaranthus retroflexus; conditions: for Redroot pigweed plant response rating: scale of 0 to 10 where 0 is no effect and 10 is complete control
# In short: (§1)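 Response is a visual 0-to-10 score relative to untreated plants, where 0 means no effect and 10 means complete control, taken twelve to sixteen days after application. Treatments went onto soil at planting and onto foliage of 1- to 4-leaf plants, using a surfactant-containing non-phytotoxic solvent.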
# soybean = experiment: Test B pre/postemergence soybean; format: in vivo, Glycine max; conditions: for Soybean plant response rating: scale of 0 to 10 where 0 is no effect and 10 is complete control
# In short: as §1
# rice = experiment: Test B flood test rice; format: in vivo, Oryza sativa
# In short: (§2)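 Each value is a visual injury score relative to controls, with 10 meaning complete control and 0 no effect. Evaluation took place twelve to sixteen days after the 2-leaf-stage plants were treated and kept in the greenhouse.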
# purple nutsedge = experiment: Test B pre/postemergence purple nutsedge; format: in vivo, Cyperus rotundus; conditions: for Nutsedge plant response rating: scale of 0 to 10 where 0 is no effect and 10 is complete control
# In short: as §1
# duck salad = experiment: Test B flood test duck salad; format: in vivo, Heteranthera limosa
# In short: as §2
# smallflower flatsedge = experiment: Test B flood test smallflower flatsedge; format: in vivo, Cyperus difformis
# In short: as §2
# wheat = experiment: Test B pre/postemergence wheat; format: in vivo, Triticum aestivum; conditions: for Wheat plant response rating: scale of 0 to 10 where 0 is no effect and 10 is complete control
# In short: as §1
# bamyardgrass = experiment: Test B flood test barnyardgrass; format: in vivo, Echinochloa crus-galli
# In short: as §2
# cocklebur = experiment: Test B pre/postemergence cocklebur; format: in vivo, Xanthium strumarium; conditions: for Cocklebur plant response rating: scale of 0 to 10 where 0 is no effect and 10 is complete control
# In short: as §1
# wild oat = experiment: Test B pre/postemergence wild oat; format: in vivo, Avena fatua; conditions: for Wild oats plant response rating: scale of 0 to 10 where 0 is no effect and 10 is complete control
# In short: as §1
# blackgrass = experiment: Test B pre/postemergence blackgrass; format: in vivo, Alopecurus myosuroides; conditions: for Blackgrass plant response rating: scale of 0 to 10 where 0 is no effect and 10 is complete control
# In short: as §1
# velvetleaf = experiment: Test B pre/postemergence velvetleaf; format: in vivo, Abutilon theophrasti; conditions: for Velvetleaf plant response rating: scale of 0 to 10 where 0 is no effect and 10 is complete control
# In short: as §1
# giant foxtail = experiment: Test B pre/postemergence giant foxtail; format: in vivo, Setaria faberii; conditions: for Giant foxtail plant response rating: scale of 0 to 10 where 0 is no effect and 10 is complete control
# In short: as §1
# sugar beet = experiment: Test B pre/postemergence sugar beet; format: in vivo, Beta vulgaris; conditions: for Sugarbeets plant response rating: scale of 0 to 10 where 0 is no effect and 10 is complete control
# In short: as §1
# morningglory = experiment: Test B pre/postemergence morningglory; format: in vivo, Ipomoea hederacea; conditions: for Morningglory plant response rating: scale of 0 to 10 where 0 is no effect and 10 is complete control
# In short: as §1
# rape = experiment: Test B pre/postemergence rape; format: in vivo, Brassica napus; conditions: for Rape plant response rating: scale of 0 to 10 where 0 is no effect and 10 is complete control
# In short: as §1
# [1] = Postemergence, Rate 125 g/ha, scale 0 to 10, 0 is no effect, 10 is complete control
# [2] = Postemergence, Rate 250 g/ha, scale 0 to 10, 0 is no effect, 10 is complete control
# [3] = Preemergence, Rate 62 g/ha, scale 0 to 10 (0 no effect, 10 complete control)
# [4] = Rate 500 g/ha, Postemergence, scale 0 to 10, 0 no effect, 10 complete control
# [5] = Postemergence (flood test), Rate 125 g/ha, scale 0 to 10, 0 is no effect, 10 is complete control
# [6] = Rate 62 g/ha, Postemergence (flood test species), scale of 0 to 10 where 0 is no effect and 10 is complete control
# [7] = Rate 62 g/ha, flood test species, Pre-emergence, visual evaluation after twelve to sixteen days
# [8] = Rate 125 g/ha, Pre-emergence, flood test species, scale 0 to 10 where 0 is no effect and 10 is complete control
# [9] = Rate 250 g/ha, Pre-emergence, flood-test species, scale 0 to 10, 0 is no effect, 10 is complete control
# [10] = Rate 500 g/ha, listed under Postemergence (flood test species), scale 0 to 10, 0 no effect, 10 complete control
# [11] = Rate 500 g/ha, Pre-emergence, flood test species, scale 0 to 10 (0 no effect, 10 complete control)
# [12] = flood test species, listed under Postemergence, Rate 250 g/ha, scale 0 to 10, 0 is no effect, 10 is complete control
smiles,measurement,setting,value
CC1CC1n1c(=O)on(C(=O)N(c2ccccc2)C(C)C)c1=O (stereo not drawn) [Compound 370],"Plant response rating, Redroot pigweed",pigweed; [1],0
same,"Plant response rating, Redroot pigweed",pigweed; [2],0
same,"Plant response rating, Redroot pigweed",pigweed; [3],5
same,Redroot pigweed plant response rating (0 to 10 scale),"pigweed; Preemergence, Rate 125 g/ha",7
same,Redroot pigweed plant response rating,"pigweed; Preemergence, Rate 250 g/ha",10
same,Redroot pigweed plant response rating,"pigweed; Preemergence, Rate 500 g/ha",10
same,Redroot pigweed plant response rating,"pigweed; Rate 62 g/ha, Postemergence",0
same,"Plant response rating, Redroot pigweed",pigweed; [4],3
same,"Plant response rating, Soybean",soybean; [1],2
same,"Plant response rating, Soybean",soybean; [2],3
same,"Plant response rating, Soybean",soybean; [3],0
same,Soybean plant response rating (0 to 10 scale),"soybean; Preemergence, Rate 125 g/ha",0
same,Soybean plant response rating,"soybean; Preemergence, Rate 250 g/ha",2
same,Soybean plant response rating,"soybean; Preemergence, Rate 500 g/ha",7
same,Soybean plant response rating,"soybean; Rate 62 g/ha, Postemergence",1
same,"Plant response rating, Soybean",soybean; [4],4
same,"Plant response rating, Rice",rice; [5],0
same,Rice plant response rating,rice; [6],0
same,"Plant response rating, Rice (0 to 10 scale, 0 is no effect, 10 is complete control)",rice; [7],0
same,Rice plant response rating,rice; [8],0
same,Rice plant response rating,rice; [9],0
same,"Plant response rating, Rice",rice; [10],2
same,Rice plant response rating,rice; [11],0
same,"Plant response rating, Rice",rice; [12],2
same,"Plant response rating, Nutsedge",purple nutsedge; [1],0
same,"Plant response rating, Nutsedge",purple nutsedge; [2],0
same,"Plant response rating, Nutsedge",purple nutsedge; [3],0
same,Nutsedge plant response rating (0 to 10 scale),"purple nutsedge; Preemergence, Rate 125 g/ha",0
same,Nutsedge plant response rating,"purple nutsedge; Preemergence, Rate 250 g/ha",5
same,Nutsedge plant response rating,"purple nutsedge; Preemergence, Rate 500 g/ha",10
same,Nutsedge plant response rating,"purple nutsedge; Rate 62 g/ha, Postemergence",0
same,"Plant response rating, Nutsedge",purple nutsedge; [4],5
same,"Plant response rating, Ducksalad",duck salad; [5],2
same,Ducksalad plant response rating,duck salad; [6],0
same,"Plant response rating, Ducksalad (0 to 10 scale, 0 is no effect, 10 is complete control)",duck salad; [7],0
same,Ducksalad plant response rating,duck salad; [8],0
same,Ducksalad plant response rating,duck salad; [9],0
same,"Plant response rating, Ducksalad",duck salad; [10],3
same,Ducksalad plant response rating,duck salad; [11],0
same,"Plant response rating, Ducksalad",duck salad; [12],3
same,"Plant response rating, S. Flatsedge",smallflower flatsedge; [5],3
same,S. Flatsedge plant response rating,smallflower flatsedge; [6],2
same,"Plant response rating, S. Flatsedge (0 to 10 scale, 0 is no effect, 10 is complete control)",smallflower flatsedge; [7],0
same,S. Flatsedge plant response rating,smallflower flatsedge; [8],0
same,S. Flatsedge plant response rating,smallflower flatsedge; [9],0
same,"Plant response rating, S. Flatsedge",smallflower flatsedge; [10],7
same,S. Flatsedge plant response rating,smallflower flatsedge; [11],0
same,"Plant response rating, S. Flatsedge",smallflower flatsedge; [12],4
same,"Plant response rating, Wheat",wheat; [1],0
same,"Plant response rating, Wheat",wheat; [2],0
same,"Plant response rating, Wheat",wheat; [3],0
same,Wheat plant response rating (0 to 10 scale),"wheat; Preemergence, Rate 125 g/ha",0
same,Wheat plant response rating,"wheat; Preemergence, Rate 250 g/ha",2
same,Wheat plant response rating,"wheat; Preemergence, Rate 500 g/ha",7
same,Wheat plant response rating,"wheat; Rate 62 g/ha, Postemergence",0
same,"Plant response rating, Wheat",wheat; [4],3
same,"Plant response rating, Barnyardgrass",bamyardgrass; [5],0
same,Barnyardgrass plant response rating,bamyardgrass; [6],0
same,"Plant response rating, Barnyardgrass (0 to 10 scale, 0 is no effect, 10 is complete control)",bamyardgrass; [7],0
same,Barnyardgrass plant response rating,bamyardgrass; [8],0
same,Barnyardgrass plant response rating,bamyardgrass; [9],0
same,"Plant response rating, Barnyardgrass",bamyardgrass; [10],2
same,Barnyardgrass plant response rating,bamyardgrass; [11],0
same,"Plant response rating, Barnyardgrass",bamyardgrass; [12],0
same,"Plant response rating, Cocklebur",cocklebur; [1],0
same,"Plant response rating, Cocklebur",cocklebur; [2],2
same,Cocklebur plant response rating (0 to 10 scale),"cocklebur; Preemergence, Rate 125 g/ha",0
same,Cocklebur plant response rating,"cocklebur; Preemergence, Rate 250 g/ha",0
same,Cocklebur plant response rating,"cocklebur; Preemergence, Rate 500 g/ha",10
same,Cocklebur plant response rating,"cocklebur; Rate 62 g/ha, Postemergence",0
same,"Plant response rating, Cocklebur",cocklebur; [4],3
same,"Plant response rating, Wild oats",wild oat; [1],0
same,"Plant response rating, Wild oats",wild oat; [2],3
same,"Plant response rating, Wild oats",wild oat; [3],0
same,Wild oats plant response rating (0 to 10 scale),"wild oat; Preemergence, Rate 125 g/ha",0
same,Wild oats plant response rating,"wild oat; Preemergence, Rate 250 g/ha",2
same,Wild oats plant response rating,"wild oat; Preemergence, Rate 500 g/ha",10
same,Wild oats plant response rating,"wild oat; Rate 62 g/ha, Postemergence",0
same,"Plant response rating, Wild oats",wild oat; [4],5
same,"Plant response rating, Blackgrass",blackgrass; [1],4
same,"Plant response rating, Blackgrass",blackgrass; [2],4
same,"Plant response rating, Blackgrass",blackgrass; [3],6
same,Blackgrass plant response rating (0 to 10 scale),"blackgrass; Preemergence, Rate 125 g/ha",8
same,Blackgrass plant response rating,"blackgrass; Preemergence, Rate 250 g/ha",9
same,Blackgrass plant response rating,"blackgrass; Preemergence, Rate 500 g/ha",10
same,Blackgrass plant response rating,"blackgrass; Rate 62 g/ha, Postemergence",2
same,"Plant response rating, Blackgrass",blackgrass; [4],5
same,"Plant response rating, Velvetleaf",velvetleaf; [1],0
same,"Plant response rating, Velvetleaf",velvetleaf; [2],0
same,"Plant response rating, Velvetleaf",velvetleaf; [3],2
same,Velvetleaf plant response rating (0 to 10 scale),"velvetleaf; Preemergence, Rate 125 g/ha",4
same,Velvetleaf plant response rating,"velvetleaf; Preemergence, Rate 250 g/ha",5
same,Velvetleaf plant response rating,"velvetleaf; Preemergence, Rate 500 g/ha",6
same,Velvetleaf plant response rating,"velvetleaf; Rate 62 g/ha, Postemergence",0
same,"Plant response rating, Velvetleaf",velvetleaf; [4],4
same,"Plant response rating, Giant foxtail",giant foxtail; [1],8
same,"Plant response rating, Giant foxtail",giant foxtail; [2],8
same,"Plant response rating, Giant foxtail",giant foxtail; [3],9
same,Giant foxtail plant response rating (0 to 10 scale),"giant foxtail; Preemergence, Rate 125 g/ha",10
same,Giant foxtail plant response rating,"giant foxtail; Preemergence, Rate 250 g/ha",10
same,Giant foxtail plant response rating,"giant foxtail; Preemergence, Rate 500 g/ha",10
same,Giant foxtail plant response rating,"giant foxtail; Rate 62 g/ha, Postemergence",6
same,"Plant response rating, Giant foxtail",giant foxtail; [4],9
same,"Plant response rating, Sugarbeets",sugar beet; [1],0
same,"Plant response rating, Sugarbeets",sugar beet; [2],0
same,"Plant response rating, Sugarbeets",sugar beet; [3],2
same,Sugarbeets plant response rating (0 to 10 scale),"sugar beet; Preemergence, Rate 125 g/ha",3
same,Sugarbeets plant response rating,"sugar beet; Preemergence, Rate 250 g/ha",5
same,Sugarbeets plant response rating,"sugar beet; Rate 62 g/ha, Postemergence",0
same,"Plant response rating, Sugarbeets",sugar beet; [4],0
same,"Plant response rating, Morningglory",morningglory; [1],10
same,"Plant response rating, Morningglory",morningglory; [2],10
same,"Plant response rating, Morningglory",morningglory; [3],0
same,Morningglory plant response rating (0 to 10 scale),"morningglory; Preemergence, Rate 125 g/ha",0
same,Morningglory plant response rating,"morningglory; Preemergence, Rate 250 g/ha",2
same,Morningglory plant response rating,"morningglory; Preemergence, Rate 500 g/ha",3
same,Morningglory plant response rating,"morningglory; Rate 62 g/ha, Postemergence",10
same,"Plant response rating, Morningglory",morningglory; [4],10
same,"Plant response rating, Rape",rape; [1],0
same,"Plant response rating, Rape",rape; [2],2
same,"Plant response rating, Rape",rape; [3],0
same,Rape plant response rating (0 to 10 scale),"rape; Preemergence, Rate 125 g/ha",0
same,Rape plant response rating,"rape; Preemergence, Rate 250 g/ha",6
same,Rape plant response rating,"rape; Preemergence, Rate 500 g/ha",10
same,Rape plant response rating,"rape; Rate 62 g/ha, Postemergence",0
same,"Plant response rating, Rape",rape; [4],3
